The source of these data is patent US7560571B2, “Substituted pyrroles and imidazoles, compositions containing same, manufacturing process therefor and use thereof” (Aventis Pharma S.A., priority 2005, dated 2009).

Series [1] has as its target T1, human FAK (Homo sapiens, UniProt Q05397).
T1 construct: The whole cDNA of human FAK, the N-terminal end of which has been labelled with histidine; made in house; host or cells: baculovirus expression system (pFastBac HTc)
Briefly: FAK autophosphorylation inhibition, time-resolved fluorescence test (HTRF). It counts as biochemical. As to conditions: autophosphorylation of the enzyme, 15 μM ATP, 1 hour at 37° C.; read-out: FAK IC 50. As to the method: The inhibitory activity of the compounds on FAK is determined by measuring the inhibition of autophosphorylation of the enzyme using a time-resolved fluorescence test (HTRF).
The whole cDNA of human FAK, the N-terminal end of which has been labelled with histidine, was cloned in a pFastBac HTc baculovirus expression vector. The protein was expressed and purified to about 70% homogeneity.
The kinase activity is determined by incubating the enzyme (6.6 μg/mL) with different concentrations of test compound in a 50 mM Hepes pH=7.2, 10 mM MgCl2, 100 μm Na3VO4, 15 μM ATP buffer for 1 hour at 37° C. The enzymatic reaction is stopped by adding Hepes pH=7.0 buffer containing 0.4 mM KF, 133 mM EDTA, 0.1% BSA and the labelling is performed, for 1 to 2 hours at room temperature, by adding to this buffer an anti-Histidine antibody labelled with XL665 and a tyrosine phosphospecific monoclonal antibody conjugated to europium cryptate (Eu-K). […] The long-lasting signal specific for XL-665 is measured in a Packard Discovery plate counter. All the tests are performed in duplicate and the average of the two tests is calculated. The inhibition of the autophosphorylation activity of FAK with compounds of the invention is expressed as a percentage of inhibition relative to a control whose activity is measured in the absence of test compound. […]
(TR-FRET usually uses a lanthanide donor and a delayed reading to cut background.)

Series [2] concerns the target T2, human KDR enzyme (Homo sapiens, UniProt P35968).
T2 construct: The cytoplasmic domain of the human KDR enzyme was cloned in the form of a GST fusion; GST; made in house; host or cells: SF21 insect cells (baculovirus)
Briefly: KDR substrate phosphorylation inhibition, scintillation technique. The format is biochemical. As to conditions: GST-KDR cytoplasmic domain, PLCγ substrate, 1 hour at 37° C.; read-out: KDR IC 50. As to the method: The inhibitory effect of the compounds is determined in an in vitro test of phosphorylation of substrate with the enzyme KDR via a scintillation technique (96-well plate, NEN).
The cytoplasmic domain of the human KDR enzyme was cloned in the form of a GST fusion in the pFastBac baculovirus expression vector. The protein was expressed in the SF21 cells and purified to about 60% homogeneity.
The KDR kinase activity is measured in 20 mM MOPS, 10 mM MgCl2, 10 mM MnCl2, 1 mM DTT, 2.5 mM EGTA, 10 mM b-glycerophosphate, pH=7.2, in the presence of 10 mM MgCl2, 100 μm Na3VO4, 1 mM NaF. 10 μl of the compound are added to 70 μL of kinase buffer containing 100 ng of KDR enzyme at 4° C. The reaction is initiated by adding 20 μL of solution containing 2 μg of substrate (SH2-SH3 fragment of PLCγ expressed in the form of a GST fusion protein), 2 μCi of γ^33P[ATP] and 2 μm of cold ATP. After incubation for 1 hour at 37° C., the reaction is stopped by adding 1 volume (100 μl) of 200 mM EDTA. The incubation buffer is removed, and the wells are washed three times with 300 μL of PBS. The radioactivity in each well is measured using a Top Count NXT radioactivity counter (Packard).
The background is determined by measuring the radioactivity in four different wells containing radioactive ATP and the substrate alone.
A total activity control is measured in four different wells containing all the reagents (γ^33P-[ATP], KDR and substrate PLCγ), but in the absence of compound.
The inhibition of the KDR activity with the compound of the invention is expressed as a percentage of inhibition of the control activity determined in the absence of compound.
Compound SU5614 (Calbiochem) (1 μm) is included in each plate as an inhibition control.

Series [3] addresses T3, human Tie2 (Homo sapiens, UniProt Q02763).
T3 construct: amino acids of the intracellular domain 776-1124; made in house; host or cells: baculovirus expression system (pFastBacGT)
Briefly: Tie2 phosphorylation of PLC inhibition, FlashPlate radioactivity. The format is biochemical. The note with it: GST-Tie2, GST-PLC substrate, one hour at 37° C.; read-out: TIE2 IC 50. The protocol:
The coding sequence of human Tie2 corresponding to the amino acids of the intracellular domain 776-1124 was generated by PCR using the cDNA isolated from a human placenta as a model. This sequence was introduced into a pFastBacGT baculovirus expression vector in the form of a GST fusion protein.
The inhibitory effect of the molecules is determined in a test of phosphorylation of PLC with Tie2 in the presence of GST-Tie2 purified to about 80% homogeneity. The substrate is composed of the SH2-SH3 fragments of PLC expressed in the form of a GST fusion protein.
The kinase activity of Tie2 is measured in a MOPS 20 mM pH 7.2 buffer, containing 10 mM MgCl2, 10 mM MnCl2, 1 mM DTT, 10 mM of glycerophosphate. In a 96-well FlashPlate plate maintained on ice, a reaction mixture is deposited, composed of 70 μL of kinase buffer containing 100 ng of enzyme GST-Tie2 per well. Next, 10 μL of the test molecule diluted in DMSO to a maximum concentration of 10% are added. For a given concentration, each measurement is performed four times. The reaction is initiated by adding 20 μL of solution containing 2 μg of GST-PLC, 2 μm of cold ATP and 1 μCi of ^33P[ATP]. After incubation for one hour at 37° C., the reaction is stopped by adding 1 volume (100 μl) of EDTA 200 mM. After removal of the incubation buffer, the wells are washed three times with 300 μL of PBS. The radioactivity is measured on a MicroBeta1450 Wallac.
The inhibition of the Tie2 activity is calculated and expressed as a percentage of inhibition relative to the control activity determined in the absence of compound.

pIC50: −log10 of the molar value.

T2 sequence (P35968 786-1356 limits assumed): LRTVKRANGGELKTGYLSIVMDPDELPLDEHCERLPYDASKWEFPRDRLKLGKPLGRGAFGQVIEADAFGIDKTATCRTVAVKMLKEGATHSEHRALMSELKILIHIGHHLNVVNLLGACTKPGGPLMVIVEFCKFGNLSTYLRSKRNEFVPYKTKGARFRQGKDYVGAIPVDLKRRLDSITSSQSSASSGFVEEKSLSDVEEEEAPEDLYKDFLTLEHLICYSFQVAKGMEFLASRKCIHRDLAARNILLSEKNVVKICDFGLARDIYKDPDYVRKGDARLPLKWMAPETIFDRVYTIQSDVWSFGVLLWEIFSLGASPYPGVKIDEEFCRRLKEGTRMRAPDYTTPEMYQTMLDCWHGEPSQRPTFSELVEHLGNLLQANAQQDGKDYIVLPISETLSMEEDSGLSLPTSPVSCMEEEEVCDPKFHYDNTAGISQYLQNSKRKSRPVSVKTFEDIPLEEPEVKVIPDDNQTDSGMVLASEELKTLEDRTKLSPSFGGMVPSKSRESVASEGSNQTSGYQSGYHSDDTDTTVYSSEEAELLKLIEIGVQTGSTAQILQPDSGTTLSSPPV
T3 sequence (Q02763 776-1124): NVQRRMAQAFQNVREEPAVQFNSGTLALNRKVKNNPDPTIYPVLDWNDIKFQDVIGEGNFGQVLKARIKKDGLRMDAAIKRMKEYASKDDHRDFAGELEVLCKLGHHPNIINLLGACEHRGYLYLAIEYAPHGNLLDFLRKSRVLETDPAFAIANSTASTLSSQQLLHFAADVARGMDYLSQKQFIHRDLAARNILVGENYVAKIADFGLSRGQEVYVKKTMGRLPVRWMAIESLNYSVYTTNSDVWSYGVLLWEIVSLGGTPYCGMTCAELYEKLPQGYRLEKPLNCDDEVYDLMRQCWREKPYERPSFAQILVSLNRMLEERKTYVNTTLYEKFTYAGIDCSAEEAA
T1 sequence (Q05397 whole entry): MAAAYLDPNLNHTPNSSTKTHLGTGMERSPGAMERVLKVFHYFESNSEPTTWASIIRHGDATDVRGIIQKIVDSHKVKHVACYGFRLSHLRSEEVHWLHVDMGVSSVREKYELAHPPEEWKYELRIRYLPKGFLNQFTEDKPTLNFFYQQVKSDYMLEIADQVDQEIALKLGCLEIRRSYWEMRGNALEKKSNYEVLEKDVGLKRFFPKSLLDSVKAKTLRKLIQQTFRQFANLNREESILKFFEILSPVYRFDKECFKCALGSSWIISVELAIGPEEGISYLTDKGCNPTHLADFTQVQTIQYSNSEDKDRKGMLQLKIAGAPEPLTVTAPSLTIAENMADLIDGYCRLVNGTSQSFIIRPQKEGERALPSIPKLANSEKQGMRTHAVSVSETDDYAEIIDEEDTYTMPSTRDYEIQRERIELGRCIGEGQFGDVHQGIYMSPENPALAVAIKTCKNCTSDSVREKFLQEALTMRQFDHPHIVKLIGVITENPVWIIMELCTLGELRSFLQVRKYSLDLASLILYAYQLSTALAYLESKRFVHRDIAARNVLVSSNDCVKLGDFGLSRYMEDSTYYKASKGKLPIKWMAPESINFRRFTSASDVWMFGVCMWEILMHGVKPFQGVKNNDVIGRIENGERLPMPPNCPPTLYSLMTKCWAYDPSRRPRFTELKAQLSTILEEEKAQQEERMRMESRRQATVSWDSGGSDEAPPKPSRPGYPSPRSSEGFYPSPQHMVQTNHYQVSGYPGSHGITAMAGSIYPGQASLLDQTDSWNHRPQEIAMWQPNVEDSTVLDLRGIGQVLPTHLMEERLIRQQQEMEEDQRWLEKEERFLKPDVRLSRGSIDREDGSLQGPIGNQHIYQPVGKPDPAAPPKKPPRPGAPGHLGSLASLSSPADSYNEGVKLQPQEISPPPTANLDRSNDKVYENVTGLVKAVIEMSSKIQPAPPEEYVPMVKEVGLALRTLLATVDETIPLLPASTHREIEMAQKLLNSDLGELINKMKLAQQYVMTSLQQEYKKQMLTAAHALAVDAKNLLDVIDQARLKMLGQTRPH

Usually melting point stands for the temperature, or range, at which the solid turns liquid. `CN(C)CC(=O)Nc1c[nH]c(C(N)=O)c1-c1ccc(NC(=O)Nc2cc(C(F)(F)F)ccc2F)cc1` [Example 6, 4-(2-Dimethylaminoacetylamino)-3-{4-[3-(2-fluoro-5-trifluoromethylphenyl)-ureido]phenyl}-1H-pyrrole-2-carboxamide]: the melting point stood at 178 °C.

Regarding `CC(=O)Nc1c[nH]c(C(N)=O)c1-c1ccc(NC(=O)Nc2cc(C(F)(F)F)ccc2F)cc1` [Example 5, 4-Acetylamino-3-{4-[3-(2-fluoro-5-trifluoromethylphenyl)ureido]phenyl}-1H-pyrrole-2-carboxamide], the melting point is 228.5 °C.

The compound `NC(=O)c1[nH]cnc1-c1ccc(NC(=O)Nc2cc(C(F)(F)F)ccc2F)cc1` [Example 46, 5-{4-[3-(2-Fluoro-5-trifluoromethylphenyl)ureido]phenyl}-3H-imidazole-4-carboxamide] gave a melting point of 325 °C.

Turning to `NC(=O)c1[nH]cc(NC(=O)c2ccccc2)c1-c1ccc(NC(=O)Nc2cc(C(F)(F)F)ccc2F)cc1` [Example 7, 4-Benzoylamino-3-{4-[3-(2-fluoro-5-trifluoromethylphenyl)ureido]phenyl}-1H-pyrrole-2-carboxamide], the melting point was 239.7 °C.

For the compound `NC(=O)c1[nH]ccc1-c1ccc(NC(=O)Nc2cc(C(F)(F)F)ccc2F)cc1` [Example 1, 3-{4-[3-(2-Fluoro-5-trifluoromethylphenyl)ureido]phenyl}-1H-pyrrole-2-carboxamide], the pIC50 is 5.62 in series [1], 6.94 in series [2] and 7.89 in series [3].

Take `NC(=O)c1[nH]cc(Cl)c1-c1ccc(NC(=O)Nc2cc(C(F)(F)F)ccc2F)cc1` [Example 44, 4-Chloro-3-{4-[3-(2-fluoro-5-trifluoromethylphenyl)ureido]phenyl}-1H-pyrrole-2-carboxamide]: the pIC50 was 7.57 in series [2] and 8.15 in series [3].

As for `CCOC(=O)c1c[nH]c(C(N)=O)c1-c1ccc(NC(=O)Nc2cc(C(F)(F)F)ccc2F)cc1` [Example 9, Ethyl 5-carbamoyl-4-{4-[3-(2-fluoro-5-trifluoromethylphenyl)ureido]phenyl}-1H-pyrrole-3-carboxylate], the melting point was 179 °C. Also, in series [2], the pIC50 is 7.64. Also, in series [3], the pIC50 was 8.40.

Compound `NC(=O)c1c[nH]c(C(N)=O)c1-c1ccc(NC(=O)Nc2cc(C(F)(F)F)ccc2F)cc1` [Example 40, 3-{4-[3-(2-Fluoro-5-trifluoromethylphenyl)ureido]phenyl}-1H-pyrrole-2,4-dicarboxamide] displayed a melting point of 196 °C.

In the case of `Cl.NC(=O)c1[nH]cc(N)c1-c1ccc(NC(=O)Nc2cc(C(F)(F)F)ccc2F)cc1`, the melting point was ~ 174 °C.

Take `NC(=O)c1[nH]cc(NC(=O)Nc2cc(C(F)(F)F)ccc2F)c1-c1ccc(NC(=O)Nc2cc(C(F)(F)F)ccc2F)cc1` [Example 4, 4-[3-(2-Fluoro-5-trifluoromethylphenyl)ureido]-3-{4-[3-(2-fluoro-5-trifluoro-methylphenyl)ureido]phenyl}-1H-pyrrole-2-carboxamide]: the pIC50 in series [2] was 6.45; in series [3] it was 6.95.

On to `NC(=O)c1[nH]cc(C(=O)O)c1-c1ccc(NC(=O)Nc2cc(C(F)(F)F)ccc2F)cc1` [Example 38, 5-Carbamoyl-4-{4-[3-(2-fluoro-5-trifluoromethylphenyl)ureido]phenyl}-1H-pyrrole-3-carboxylic acid], for which the melting point worked out at 194 °C.
